Source: publication PMC2229574 (The Journal of General Physiology, 2003)
Where two headings read alike, the source gives them in different places.

Legend:
[1] = target: mouse AChR ɛ-subunit D97A (Mus musculus, UniProt P02716+P04756+P20782, D117A); conditions: 20 mM choline
mouse AChR αD97A = mouse AChR αD97A (Mus musculus, UniProt P02716+P04756+P20782, D117A)
[2] = target: mouse AChR β-subunit D97V (Mus musculus, UniProt P02716+P04756+P09690+P20782, D120V); conditions: 20 mM choline
[3] = target: mouse AChR ɛ-subunit D97V (Mus musculus, UniProt P02716+P04756+P20782, D117V); conditions: 20 mM choline
mouse AChR αD97Y = mouse AChR αD97Y (Mus musculus, UniProt P02716+P04756+P20782, D117Y)
mouse AChR αD97V = mouse AChR αD97V (Mus musculus, UniProt P02716+P04756+P20782, D117V)
[4] = target: mouse AChR δ-subunit N98V (Mus musculus, UniProt P02716+P04756+P20782, N122V); conditions: 20 mM choline
mouse AChR αD97N = mouse AChR αD97N (Mus musculus, UniProt P02716+P04756+P20782, D117N)
mouse AChR αD97R = mouse AChR αD97R (Mus musculus, UniProt P02716+P04756+P20782, D117R)
[5] = test system: hybrid AChR (one wild-type α-subunit and one D97A α-subunit), hybrid 2; conditions: 20 mM choline
[6] = target: mouse AChR δ-subunit N98A (Mus musculus, UniProt P02716+P04756+P20782, N122A); conditions: 20 mM choline
[7] = target: T1, wild-type mouse AChR (α2βδɛ) (Mus musculus, UniProt P02716+P04756+P20782); conditions: wt; for L2: choline (Table III / text)
[8] = target: mouse AChR β-subunit G98V (Mus musculus, UniProt P02716+P04756+P09690+P20782, G121V); conditions: 20 mM choline
mouse AChR αD97F = mouse AChR αD97F (Mus musculus, UniProt P02716+P04756+P20782, D117F)
Chain of mouse AChR αD97F (P04756 21-457 D117F): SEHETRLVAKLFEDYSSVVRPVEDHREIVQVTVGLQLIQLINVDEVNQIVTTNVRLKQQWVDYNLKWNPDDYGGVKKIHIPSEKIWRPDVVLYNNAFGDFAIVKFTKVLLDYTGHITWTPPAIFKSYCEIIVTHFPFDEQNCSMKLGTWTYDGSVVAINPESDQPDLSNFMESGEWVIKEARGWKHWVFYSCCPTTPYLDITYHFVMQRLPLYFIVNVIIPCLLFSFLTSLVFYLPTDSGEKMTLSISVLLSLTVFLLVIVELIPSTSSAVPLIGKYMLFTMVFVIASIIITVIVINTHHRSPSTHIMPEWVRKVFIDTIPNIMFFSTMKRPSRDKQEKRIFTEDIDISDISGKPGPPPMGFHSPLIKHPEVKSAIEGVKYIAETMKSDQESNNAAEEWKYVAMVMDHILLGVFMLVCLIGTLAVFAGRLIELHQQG
Chain of mouse AChR αD97F (P09690 24-501 partner): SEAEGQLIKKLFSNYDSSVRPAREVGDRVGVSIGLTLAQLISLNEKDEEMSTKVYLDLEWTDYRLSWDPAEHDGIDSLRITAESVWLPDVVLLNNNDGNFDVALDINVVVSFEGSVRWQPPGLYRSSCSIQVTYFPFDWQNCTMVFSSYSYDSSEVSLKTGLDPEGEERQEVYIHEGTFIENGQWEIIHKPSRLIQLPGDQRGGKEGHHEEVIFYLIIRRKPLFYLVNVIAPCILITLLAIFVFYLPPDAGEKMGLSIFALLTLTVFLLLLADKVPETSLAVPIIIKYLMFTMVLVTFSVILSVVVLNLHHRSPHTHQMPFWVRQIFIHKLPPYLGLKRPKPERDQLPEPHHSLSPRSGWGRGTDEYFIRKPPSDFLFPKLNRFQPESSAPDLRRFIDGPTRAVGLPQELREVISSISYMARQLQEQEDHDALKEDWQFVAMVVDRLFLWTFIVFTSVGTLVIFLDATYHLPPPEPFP
Chain of mouse AChR αD97F (P02716 25-520): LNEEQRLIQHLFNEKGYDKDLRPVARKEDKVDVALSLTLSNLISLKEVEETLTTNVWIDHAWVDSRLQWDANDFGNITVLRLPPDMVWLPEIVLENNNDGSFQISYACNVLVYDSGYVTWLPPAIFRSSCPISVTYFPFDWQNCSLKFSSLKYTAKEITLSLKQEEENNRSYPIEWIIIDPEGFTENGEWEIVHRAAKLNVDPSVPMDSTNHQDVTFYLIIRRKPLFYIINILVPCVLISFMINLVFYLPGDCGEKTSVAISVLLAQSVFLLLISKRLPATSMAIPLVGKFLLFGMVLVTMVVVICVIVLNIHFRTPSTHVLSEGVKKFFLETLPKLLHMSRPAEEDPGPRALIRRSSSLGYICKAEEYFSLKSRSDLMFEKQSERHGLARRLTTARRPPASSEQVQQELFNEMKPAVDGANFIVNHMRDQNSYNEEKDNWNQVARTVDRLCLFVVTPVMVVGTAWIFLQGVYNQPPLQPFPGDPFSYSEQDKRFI
Chain of mouse AChR αD97F (P20782 21-493, stated change not applied): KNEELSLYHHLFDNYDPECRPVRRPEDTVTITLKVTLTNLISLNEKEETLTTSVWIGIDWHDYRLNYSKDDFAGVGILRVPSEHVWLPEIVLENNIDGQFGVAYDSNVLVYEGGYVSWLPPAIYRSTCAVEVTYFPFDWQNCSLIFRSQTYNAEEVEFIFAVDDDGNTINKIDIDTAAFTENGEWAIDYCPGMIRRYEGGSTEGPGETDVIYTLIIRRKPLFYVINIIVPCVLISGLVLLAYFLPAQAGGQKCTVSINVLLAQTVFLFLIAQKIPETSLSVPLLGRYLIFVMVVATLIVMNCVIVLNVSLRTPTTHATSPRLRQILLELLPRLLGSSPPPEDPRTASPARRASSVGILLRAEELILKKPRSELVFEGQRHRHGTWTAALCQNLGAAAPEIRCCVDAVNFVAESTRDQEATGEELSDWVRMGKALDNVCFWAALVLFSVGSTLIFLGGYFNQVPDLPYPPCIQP

mouse AChR αD97G = mouse AChR αD97G (Mus musculus, UniProt P02716+P04756+P20782, D117G); conditions: for β2 (diliganded channel opening rate constant): 20 mM choline
[9] = target: T1, wild-type mouse AChR (α2βδɛ); conditions: cited from earlier work
[10] = target: mouse AChR β-subunit G98A (Mus musculus, UniProt P02716+P04756+P09690+P20782, G121A); conditions: 20 mM choline
[11] = target: mouse AChR β-subunit D97A (Mus musculus, UniProt P02716+P04756+P09690+P20782, D120A); conditions: 20 mM choline

Chain of mouse AChR αD97A (P04756 21-457 D117A): as the sequence (P04756 21-457 D117F) above, with F97A counted along it
Chain of mouse AChR αD97A (P09690 24-501 partner): as the sequence (P09690 24-501 partner) above
Chain of mouse AChR αD97A (P02716 25-520): as the sequence (P02716 25-520) above
Chain of mouse AChR αD97A (P20782 21-493, stated change not applied): as the sequence (P20782 21-493, stated change not applied) above

Question: With `C[N+](C)(C)CCO` [choline] as the molecule, how does the “β2 (channel opening rate constant)” value [1] read?
Answer: 64 s⁻¹

Question: What about the “ΔΔG0 for channel gating, 0.59 ln(L2^wt/L2^mut)” value (mouse AChR αD97A; double αD97A mutant, 20 mM choline) of the same molecule?
Answer: 3.09 kcal mol^−1

Question: What about the “α2 (diliganded channel closing rate constant)” value (mouse AChR αD97A; αD97A, 0.4 mM choline) of the same molecule?
Answer: 1,719 s^−1

Question: What about the “β2 (diliganded channel opening rate constant)” value (mouse AChR αD97A; αD97A, 20 mM choline) of the same molecule?
Answer: 13,793 s^−1

Question: And the “L2 (diliganded gating equilibrium constant, β2/α2)” value (mouse AChR αD97A; αD97A, choline)?
Answer: 8.023

Question: And the “L2-ratio (mut/wt)” value (mouse AChR αD97A; αD97A, choline)?
Answer: 168

Question: And the “L2-ratio (mut/wt)” value (mouse AChR αD97A; αD97A, choline, listed as Choline)?
Answer: 168.50

Question: And the “α2* (apparent channel closing rate constant)” value [2]?
Answer: 762 s⁻¹

Question: What about the “β2 (channel opening rate constant)” value [2] of the same molecule?
Answer: 85 s⁻¹

Question: And the “α2* (apparent channel closing rate constant)” value [3]?
Answer: 933 s⁻¹

Question: And the “β2 (channel opening rate constant)” value [3]?
Answer: 103 s⁻¹

Question: And the “α2 (diliganded channel closing rate constant)” value (mouse AChR αD97Y; 0.4 mM choline)?
Answer: 1,992 s^−1

Question: And the “β2 (diliganded channel opening rate constant)” value (mouse AChR αD97Y; 20 mM choline)?
Answer: 1,396 s^−1

Question: And the “L2 (diliganded gating equilibrium constant, β2/α2)” value (mouse AChR αD97Y; choline)?
Answer: 0.701

Question: And the “L2-ratio (mut/wt)” value (mouse AChR αD97Y; choline)?
Answer: 14.72

Question: And the “α2 (diliganded channel closing rate constant)” value (mouse AChR αD97V; 0.4 mM choline)?
Answer: 1,974 s^−1

Question: And the “β2 (diliganded channel opening rate constant)” value (mouse AChR αD97V; 20 mM choline)?
Answer: 161 s⁻¹

Question: What about the “L2 (diliganded gating equilibrium constant, β2/α2)” value (mouse AChR αD97V; choline) of the same molecule?
Answer: 0.082

Question: And the “L2-ratio (mut/wt)” value (mouse AChR αD97V; choline)?
Answer: 1.71

Question: And the “α2* (apparent channel closing rate constant)” value [4]?
Answer: 437 s⁻¹

Question: And the “β2 (channel opening rate constant)” value [4]?
Answer: 62 s⁻¹

Question: What about the “α2 (diliganded channel closing rate constant)” value (mouse AChR αD97N; 0.4 mM choline) of the same molecule?
Answer: 2,379 s^−1

Question: And the “β2 (diliganded channel opening rate constant)” value (mouse AChR αD97N; 20 mM choline)?
Answer: 268 s⁻¹

Question: What about the “L2 (diliganded gating equilibrium constant, β2/α2)” value (mouse AChR αD97N; choline) of the same molecule?
Answer: 0.113

Question: And the “L2-ratio (mut/wt)” value (mouse AChR αD97N; choline)?
Answer: 2.37

Question: And the “α2 (diliganded channel closing rate constant)” value (mouse AChR αD97R; 0.4 mM choline)?
Answer: 1,653 s^−1

Question: And the “β2 (diliganded channel opening rate constant)” value (mouse AChR αD97R; 20 mM choline)?
Answer: 10,951 s^−1

Question: And the “L2 (diliganded gating equilibrium constant, β2/α2)” value (mouse AChR αD97R; choline)?
Answer: 6.624

Question: And the “L2-ratio (mut/wt)” value (mouse AChR αD97R; choline)?
Answer: 139.12

Question: And the “ΔΔG0 for channel gating, 0.59 ln(L2^wt/L2^mut)” value [5]?
Answer: 0.95 kcal mol^−1

Question: What about the “α2* (apparent channel closing rate constant)” value [6] of the same molecule?
Answer: 1,335 s^−1

Question: And the “β2 (channel opening rate constant)” value [6]?
Answer: 36 s⁻¹

Question: And the “α2 (diliganded channel closing rate constant)” value ([7]; 0.4 mM choline)?
Answer: 2,100 s^−1

Question: And the “β2 (diliganded channel opening rate constant)” value ([7]; 20 mM choline)?
Answer: 100 s⁻¹

Question: What about the “β2 (channel opening rate constant)” value ([7]; 20 mM choline (Table VIII)) of the same molecule?
Answer: 100 s⁻¹

Question: And the “α2* (apparent channel closing rate constant)” value ([7]; 20 mM choline, ∼2-fold smaller than α2 because of channel block)?
Answer: 1,100 s^−1

Question: And the “L2 (diliganded gating equilibrium constant, β2/α2)” value ([7]; choline)?
Answer: 0.048

Question: And the β2 ([7]; choline (Table III / Fig. 4))?
Answer: 100 s⁻¹

Question: And the L2 [7]?
Answer: 0.05

Question: And the L2 ([7]; listed as Choline)?
Answer: 0.047

Question: And the α2 ([7]; choline (Table III))?
Answer: 2,100 s^−1

Question: And the “α2* (apparent channel closing rate constant)” value [8]?
Answer: 471 s⁻¹

Question: And the “β2 (channel opening rate constant)” value [8]?
Answer: 80 s⁻¹

Question: And the “α2 (diliganded channel closing rate constant)” value (mouse AChR αD97F; 0.4 mM choline)?
Answer: 1,831 s^−1

Question: What about the “β2 (diliganded channel opening rate constant)” value (mouse AChR αD97F; 20 mM choline) of the same molecule?
Answer: 2,748 s^−1

Question: And the “L2 (diliganded gating equilibrium constant, β2/α2)” value (mouse AChR αD97F; choline)?
Answer: 1.501

Question: And the “L2-ratio (mut/wt)” value (mouse AChR αD97F; choline)?
Answer: 31.52

Question: What about the “α2 (diliganded channel closing rate constant)” value (mouse AChR αD97G; αD97G kinetic mode G1, 0.4 mM choline) of the same molecule?
Answer: 2,105 s^−1

Question: And the “β2 (diliganded channel opening rate constant)” value (mouse AChR αD97G; αD97G kinetic mode G1)?
Answer: 421 s⁻¹

Question: And the “L2 (diliganded gating equilibrium constant, β2/α2)” value (mouse AChR αD97G; αD97G kinetic mode G1, choline)?
Answer: 0.200

Question: And the “L2-ratio (mut/wt)” value (mouse AChR αD97G; αD97G kinetic mode G1, choline)?
Answer: 4.20

Question: What about the “β2 (diliganded channel opening rate constant)” value (mouse AChR αD97G; αD97G kinetic mode G2) of the same molecule?
Answer: 570 s⁻¹

Question: And the “L2 (diliganded gating equilibrium constant, β2/α2)” value (mouse AChR αD97G; αD97G kinetic mode G2, choline)?
Answer: 0.605

Question: And the “choline dissociation from open AChRs (value subtracted from the α2 estimate)” value ([9]; ref Cymes et al., 2002)?
Answer: 200 s⁻¹

Question: What about the “channel-opening rate constant, times slower than for ACh” value ([9]; wt AChRs, ref Zhou et al., 1999, Grosman and Auerbach, 2000a) of the same molecule?
Answer: 500 times

Question: And the “α2* (apparent channel closing rate constant)” value [10]?
Answer: 861 s⁻¹

Question: What about the “β2 (channel opening rate constant)” value [10] of the same molecule?
Answer: 49 s⁻¹

Question: What about the “α2* (apparent channel closing rate constant)” value [11] of the same molecule?
Answer: 1,320 s^−1

Question: What about the “β2 (channel opening rate constant)” value [11] of the same molecule?
Answer: 72 s⁻¹
